According to patent US20260063641A1, “COMPOSITIONS AND METHODS FOR LABELING AND DETECTING BINDING PARTNERS” (UNIVERSITY OF UTAH RESEARCH FOUNDATION, priority 2022, published 2026):
Entries after “also recorded” stand apart in the source; their conditions may differ.

Columns and labels:
[1] = system: BRD2, BRD3 and BRD4 (BET proteins) and interactors; assay: BioTAC proximity labeling with label-free mass spectrometry-based proteomics of streptavidin-enriched biotinylated proteins; format: cell-based
Description: (§1) Having determined that the BioTAC system could identify BRD4 as a (+)-JQ1 target in focused screens, it was evaluated as an unbiased target-ID method. To identify direct binders of (+)-JQ1 proteome-wide, BioTAC proximity labelling experiments were performed as described above, followed by label-free mass spectrometry-based proteomic analysis of biotinylated proteins enriched following a 30 minute treatment with 100 μM biotin plus DMSO or 1 μM Cpd1, and then 1 μM Cpd1 off-competed by pre-treatment with 10 μM free (+)-JQ1.
(§2) Having established conditions for determining the primary targets of small molecules using the BioTAC system, its utility in reading out the interactome sphere of (+)-JQ1 bound BET-proteins was next investigated. An advantage of the BioTAC system is the relatively long half-life of the activated biotin-AMP intermediate generated by TurboID, allowing the labelling radius to be increased up to 35 nm by extending the labelling time. To quantitively evaluate the ability of the BioTAC system to successfully enrich the known interactome of (+)-JQ1 bound BET proteins, time course BioTAC proximity labelling experiments were performed at the 1 h and 4 h time points, and evaluated streptavidin-enriched biotinylated proteins using mass spectrometry-based proteomic analysis (FIG. 2A-C, FIG. 6). Longer time points correlated with a greater number of proteins meeting the significance cut-offs (defined as FC>2, P<0.05) for both enrichment in Cpd1 vs. DMSO, and competition with free (+)-JQ1 in Cpd1 vs. Cpd1+10 μM (+)-JQ1, (FIG. 2A, FIG. 6). […] Additionally, identified hit proteins at 1-4 hrs also included many known BET interactors, such as proteins found in components of the Pol II productive elongation complex subunit P-TEFb, the TFILD complex, and the Nucleosome Remodeling Deacetylase (NuRD) complex, as well as known BRD4 direct-binder Histone H4. […] To test this hypothesis the hits were compared to an extensive BET protein interactome reference dataset identified using AP/MS and proximity labelling coupled to mass spectrometry with and without (+)-JQ1. The BioTAC system afforded significant enrichment and off-competition (P<0.0001, one-way ANOVA) of identified reference interactors at the 4 h time point (FIG. 2B). Next it was asked whether the inverse could be performed, enriching complex members identified by Lambert et al. Mol Cell 73, 621-638 e617 (2019) directly from the data without any a priori knowledge of known interactors. It was discovered that 60% of the statistically significant enriched and (+)-JQ1 rescued hits were also present in the Lambert dataset. This observation falls greater than 7 standard deviations above a random bootstrap analysis of the data without filtering for significant enrichment and (+)-JQ1 rescue (FIG. 2C).
(§3) 9 million HEK293 cells were plated into 15 cm dishes containing 12 mL of complete media (DMEM, 10% FBS, 1% pen/strep) and incubated overnight. Cells were transiently transfected with 1 mL of OptiMEM media containing 10 μg of BioTAC plasmid and 30 μL of TransIT-2020 transfection reagent for 24 hr. Following a media change, cells were optionally pre-treated with parental molecules for 10 min, then treated with bifunctional compound for 10 min, and finally labeled in 100 μM biotin for 30 min, 1 hr, or 4 hrs. Cells were washed 5 times with DPBS then harvested by scraping on ice into 1.5 mL tubes. […] Lysates were clarified by centrifuging at 16,000×g for 10 min and protein concentration determined by BCA assay. […]

[2] = target: BRD2, BRD3 and BRD4 (BET proteins) and interactors (Homo sapiens, UniProt P25440); assay: as above; format: cell-based; conditions: 1 μM, 4 hr timepoint
Description: as §1, §2, §3

Sequence of BRD2, BRD3 and BRD4 (BET proteins) and interactors (Homo sapiens, UniProt P25440) (P25440 whole entry): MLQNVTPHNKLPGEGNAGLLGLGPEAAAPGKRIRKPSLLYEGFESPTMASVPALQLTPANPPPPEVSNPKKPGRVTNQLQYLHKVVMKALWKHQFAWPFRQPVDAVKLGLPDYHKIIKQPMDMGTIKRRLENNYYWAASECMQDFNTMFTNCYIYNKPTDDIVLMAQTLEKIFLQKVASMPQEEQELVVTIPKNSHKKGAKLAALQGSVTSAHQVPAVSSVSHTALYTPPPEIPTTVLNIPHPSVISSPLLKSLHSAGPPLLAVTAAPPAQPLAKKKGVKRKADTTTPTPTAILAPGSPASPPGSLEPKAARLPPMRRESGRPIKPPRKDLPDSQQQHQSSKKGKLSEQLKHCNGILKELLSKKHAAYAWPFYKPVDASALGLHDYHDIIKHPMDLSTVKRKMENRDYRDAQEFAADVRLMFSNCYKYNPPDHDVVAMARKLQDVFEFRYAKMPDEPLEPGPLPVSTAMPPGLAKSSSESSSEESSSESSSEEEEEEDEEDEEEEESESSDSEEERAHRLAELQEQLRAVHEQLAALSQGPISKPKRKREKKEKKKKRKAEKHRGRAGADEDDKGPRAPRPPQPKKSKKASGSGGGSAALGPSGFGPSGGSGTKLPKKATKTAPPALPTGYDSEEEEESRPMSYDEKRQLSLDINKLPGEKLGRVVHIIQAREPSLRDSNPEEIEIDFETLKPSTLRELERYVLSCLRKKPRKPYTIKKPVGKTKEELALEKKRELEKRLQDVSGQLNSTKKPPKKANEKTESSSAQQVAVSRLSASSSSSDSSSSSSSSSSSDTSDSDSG
Sequence of BRD2, BRD3 and BRD4 (BET proteins) and interactors (Homo sapiens, UniProt P25440) (as listed by the source partner): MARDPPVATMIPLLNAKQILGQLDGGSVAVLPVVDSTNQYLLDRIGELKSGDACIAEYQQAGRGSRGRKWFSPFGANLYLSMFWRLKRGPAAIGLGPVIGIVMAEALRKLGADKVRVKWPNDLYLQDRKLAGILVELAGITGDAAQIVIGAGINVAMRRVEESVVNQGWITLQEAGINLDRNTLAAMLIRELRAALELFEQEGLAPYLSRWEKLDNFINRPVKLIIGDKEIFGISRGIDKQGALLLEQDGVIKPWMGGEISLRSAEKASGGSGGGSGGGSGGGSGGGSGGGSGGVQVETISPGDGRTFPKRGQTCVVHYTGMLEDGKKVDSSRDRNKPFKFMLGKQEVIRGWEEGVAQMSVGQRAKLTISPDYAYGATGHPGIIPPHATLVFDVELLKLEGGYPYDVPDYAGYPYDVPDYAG

detection of BRD2 (proteomics) [2]: detected
Structure (SMILES): CC[C@H](C(=O)N1CCCC[C@H]1C(=O)O[C@H](CCc1ccc(OC)c(OC)c1)c1ccccc1OCC(=O)NCCOCCOCCOCCNC(=O)C[C@@H]1N=C(c2ccc(Cl)cc2)c2c(sc(C)c2C)-n2c(C)nnc21)c1cc(OC)c(OC)c(OC)c1 [Cpd1, (R)-1-(2-((17-((S)-4-(4-Chlorophenyl)-2,3,9-trimethyl-6H-thieno[3,2-f][1,2,4]triazolo[4,3-a][1,4]diazepin-6-yl)-2,16-dioxo-6,9,12-trioxa-3,15-diazaheptadecyl)oxy)phenyl)-3-(3,4-dimethoxyphenyl)propyl (S)-1-((S)-2-(3,4,5-trimethoxyphenyl)butanoyl)piperidine-2-carboxylate]
identification of BET-containing complexes (proteomics heatmap) ([1]; 1 μM with DMSO, 10 μM or 100 μM (+)-JQ1, FC>3, P<0.05): identifies known BET-containing complexes
enrichment and off-competition of BRD3 and BRD4 (time course proteomics) ([1]; 1 μM, 30 min, 1 h and 4 h, vs DMSO and +10 μM (+)-JQ1, FC>2, P<0.05): significantly enriched and off-competed at all time points
fold-change of reference BRD2, BRD3 and BRD4 interactors (Lambert et al.), rescue by (+)-JQ1 ([1]; 4 hr time point, P<0.0001, 1-way ANOVA): statistically significant rescue
enrichment of BRD3 and BRD4 among biotinylated proteins (proteomics) ([1]; HEK293, 1 μM, 100 μM biotin, 30 min, vs DMSO and 10 μM (+)-JQ1 off-compete): Highly selective enrichment of known (+)-JQ1 targets BRD3 and BRD4; also recorded: significant enrichment of BRD3 and BRD4
